Tests used:
[1] = Kidney ischemia-reperfusion injury (IRI) mouse model; assay type: in vivo; conditions: mice
Protocol: IRI is a clinically highly relevant model, since it is an unavoidable consequence after kidney transplantation and contributes to acute kidney injuries in various contexts (Müller et al., 2017). To test whether primidone could be used to suppress pathophysiological RIPK1-mediated cell death in renal IRI, mice were provided with a drinking solution containing either primidone at 2.875 mM or vehicle in the regular drinking water for five days prior to ischemia reperfusion surgery until the end of the reperfusion phase. Induction of murine kidney IRI was performed via a midline abdominal incision and bilateral renal pedicle clamping for 37 min using microaneurysm clamps (Aesculap Inc., Center Valley, Pa., USA). Throughout the surgical procedure, mice were kept under isoflurane narcosis and the body temperature was maintained at 36° C. to 37° C. by continuous monitoring using a temperature-controlled self-regulated heating system (Fine Science Tools, Heidelberg, Germany). After removal of the clamps, reperfusion of the kidneys was confirmed visually before the abdomen was closed in two layers using standard 6-0 sutures. After 48 h reperfusion, the mice were sacrificed, blood samples were taken by retrobulbar punction and organs were collected for analysis.
For histology, kidney samples freshly obtained were fixed in 4.5% neutral-buffered formaldehyde and embedded in paraffin. Sections were dewaxed, rehydrated, and subjected to Masson trichrome staining according to routine protocols. Sections were dehydrated and mounted using DePeX mounting media (Serva). Stainings were evaluated in a blinded manner using a Leica Axiovert microscope and Axio Vision SE64 Rel 4.9. software (Leica Microsystems, Wetzlar, Germany). For data presentation, mild sharpening, contrast enhancement and gamma adjustment was performed. To analyze cell death of the tissue sections, a TdT-mediated dUTP nick end labelling (TUNEL) assay was performed using a fluorescence-based detection kit according to the manufacturer's instructions (G3250, Promega). Briefly, tissue sections were dewaxed, rehydrated, fixed in 4% paraformaldehyde and permeabilized with Proteinase K for 10 min at RT. Following this, the sections were equilibrated with the provided buffer for 10 min and labeled with the TdT reaction mix for 60 min at 37° C. in a humidified dark environment. […] Fluorescence micrographs (data not shown) were acquired with a 20× and 40× objective magnifications using a standard fluorescein filter set to view the green fluorescence at 520 nm with a Leica Axiovert microscope and Axio Vision SE64 Rel 4.9 software. Quantification of TUNEL-positive cells was performed manually by two blinded observers by evaluating 8 randomly selected fields of view per slide.

NF-κB = assay: Western blot of NF-κB activation (p-NF-κB) after TZ stimulation; assay type: cell-based, murine; conditions: L929, 100 ng/ml TNF-α + 25 μM zVAD (TZ), 1 mM primidone
Protocol: It was then analyzed whether primidone interferes with the canonical NF-κB signaling pathway which drives the expression of pro-survival molecules. The binding of TNF-α to its corresponding receptor (TNFR1) initially results in the activation of the NF-κB signaling pathway. In this early phase of TNF activation, the cells are protected from cell death by the presence of a membrane-bound complex known as complex I which is formed within seconds after engagement of TNFR1 by TNF-α. This complex induces the expression of pro-survival molecules via activation of the canonical NF-κB pathway. As the default response of most cells to TNF-α is survival and NF-κB-mediated upregulation of pro-survival genes, it was analyzed whether primidone functions in a survival-signaling mode and thus indirectly prevents cell death signaling. For this purpose, murine L929 cells were stimulated at 37° C. for different time periods (as indicated) with 100 ng/ml TNF-α+25 μM zVAD (TZ) in the absence (vehicle) or presence of 1 mM primidone. Subsequently, a Western blot analysis of the cell lysates using a specific p-NF-κB antibody was performed.

[2] = TNF-α-induced SIRS mouse model; assay type: in vivo; conditions: C57BL/6 mice, 10 mg/kg i.p. 15 min before 1 mg/kg murine TNF-α i.v.
Protocol: Hypothermia and morbidity induced by a high dose of TNF-α is considered in the literature to be a model for systemic inflammatory response syndrome (SIRS) (Moerke C, et al. (2019); Newton K, et al. (2014); Duprez L, et al. (2011)). All mice (8 weeks old) used in this experiment were on C57BL/6 background and age-, sex-, and weight-matched. Recombinant carrier-free murine TNF-α was obtained from R&D Systems (Bio-Techne, Wiesbaden, Germany). Each mouse received a single bolus of 1 mg murine TNF-α/kg body weight in a total volume of […] phosphate-buffered saline, via the tail vein. In this setting, mice received 15 min before TNF-α application a single intraperitoneal (i.p.) injection (total volume per mouse was 200 μl) of either 2.5% DMSO in PBS (vehicle) or 10 mg primidone/kg body weight (as indicated). Thereafter, the animals (n=16 per group) were placed under permanent observation and survival was checked every 15 min. Survival is depicted in a Kaplan-Meier plot (*** p<0.001).

Jurkat cells = assay: Anti-Fas antibody induced RIPK1-independent apoptosis; assay type: cell-based, human; conditions: 5 ng/ml anti-Fas antibody, 5 h, zVAD 25 μM, primidone 1 mM
Protocol: To this end, human T cells (Jurkat cells) were incubated for 5 h at 37° C. in the presence of (a) vehicle, (b) 5 ng/ml anti-Fas antibody, (c) 5 ng/ml anti-Fas antibody in combination with 25 μM of the pan-caspase inhibitor zVAD, and (d) 5 ng/ml anti-Fas antibody in combination with 1 mM primidone. The addition of the anti-Fas antibody induces apoptosis, a caspase-dependent form of regulated cell death that can be inhibited by the addition of the pan-caspase inhibitor zVAD.

TNF-α-induced complex I = assay: Immunoprecipitation of TNF-α-induced complex I after TSZ, RIPK1 western blot; assay type: cell-based, human; conditions: U937, TSZ (100 ng/ml Fc-TNF-α + 1 μM SM164 + 25 μM zVAD), 1 mM primidone
Protocol: It was tested whether primidone interferes with binding of TNF-α to its corresponding receptor TNFR1. To induce cell death, human U937 cells were treated in the absence (vehicle) or presence of 1 mM primidone with 100 ng/ml Fc-tagged TNF-α+1 μM SMAC mimetic SM164+25 μM zVAD (TSZ) for different time periods, followed by immunopurification of the immunoprecipitated TNF-α-induced complex I using μMACS™ protein A/G microbeads, and western blot analysis using a specific RIPK1 antibody.

[3] = primidone 2.875 mM in drinking water from 5 days before surgery, 37 min bilateral clamping, 48 h after reperfusion

Structure (SMILES): CCC1(c2ccccc2)C(=O)NCNC1=O [primidone, 5-Ethyl-5-phenyl-1,3-diazinane-4,6-dione]
- Serum concentration of creatinine [1, 3]: significantly reduced
- Serum concentration of urea [1, 3]: significantly reduced
- TUNEL-positive cells (cells undergoing regulated cell death) in kidney sections ([1]; primidone 2.875 mM in drinking water, 48 h reperfusion): significant reduced number of cells undergoing regulated cell death
- Masson trichrome histology of renal outer medulla (tissue integrity) ([1]; primidone 2.875 mM in drinking water, 48 h reperfusion, data not shown): better preservation of tissue integrity
- Activation (phosphorylation) of NF-κB (NF-κB): Activation (phosphorylation) of NF-κB was detected
- TNF-α-induced hypothermia [2]: significantly improves
- Survival after TNF-α injection ([2]; vs vehicle, p<0.001): significantly enhanced survival
- Inhibition of anti-Fas antibody induced cell death (caspase-dependent, RIPK1-independent) (Jurkat cells): no inhibitory effect
- TNF-α-induced formation of complex I (RIPK1 binding to TNFR1) (TNF-α-induced complex I): not influenced
